Several values for one entry are separate records, joined by “and”; a condition that tells them apart may be missing. Equal values may be shown once. Read-outs that look alike come from different tables or passages of the source.
Legend:
[1] = target: tauP301L (Homo sapiens, UniProt P10636, P618L); experiment: WB degradation of tauP301L in SH-SY5Y-tauP301L cells; assay type: cell-based; conditions: densitometry, dosage degradation, SH-SY5Y-Tau-TiFC; for Tau normalized to GAPDH and control, AVG %: average of N=3
Experimental: (§1) Adherent cells were washed with phosphate-buffered saline (PBS) and cell pellets were lysed in SDS-based sample buffer (277.8 mM Tris-HCI, pH 6.8, 4.4% LDS, 44.4% (v/v) glycerol) containing beta-mercaptoethanol. Alternatively, cell pellets or protein supernatants were lysed in 5X Laemmli sample buffer. Whole-cell lysates were separated using SDS-PAGE, and transferred onto polyvinyllidene difluoride membranes at 100 V for 2 h at 4 °C. The membrane was incubated with a blocking solution consisting 4% skim milk in PBS solution for 30 min at room temperature and incubated with primary antibodies overnight, followed by incubation with host-specific HRP-conjugated secondary antibodies (1:10000 dilution). For signal detection, the membrane was developed with a mixture of ECL solution (Thermo Fisher Scientific) using X-ray films. Densitometry of developed bands was measured and analyzed with ImageJ (NIH, Bethesda).

[2] = tested on: mutant HttQ103 and LC3; experiment: ICC of HDQ103-GFP and LC3 co-localization in HeLa cells; assay type: cell-based; conditions: Fig. S7k, test substances given +HCQ; for HttQ103-GFP / LC3 colocalization, AVG of cells per 50 cells: control 1; for HttQ103-GFP / LC3 colocalization, percentage AVG: control 2
Experimental: Cells were cultured on coverslips coated with poly-L-lysine (Sigma) to observe cellular localization of proteins. Using 4% paraformaldehyde in PBS (pH 7.4), the cells were fixed for 15 min at room temperature and washed three times for 5 min with PBS. After fixing, the cells were permeabilized with 0.5% Triton X-100 in PBS solution for 15 min and washed three times with PBS for 5 min. The cells were blocked containing 2% BSA in PBS solution for 1 h at room temperature. Subsequently, the cells were incubated with primary antibody diluted in 2% BSA/PBS solution overnight at 4 °C, followed by washing the cells three times for 10 min with PBS and incubated with Alexa Fluor-conjugated secondary antibody diluted in 2% BSA/PBS for 30 min at room temperature. Using a DAPI-containing mounting medium (Vector Laboratories), the coverslips were mounted on glass slides. Confocal images were taken by laser scanning confocal microscope 510 Meta (Zeiss) and analyzed by Zeiss LSM Image Browser (ver. 4.2.0.121). […] Quantification results are shown as mean ± S.D. or S.E.M. of three independent experiments […]
Supplementary Fig. 7. AUTOTACs selectively degrade pathological mutant huntingtin. […]
(j) ICC of HeLa cells […]
expressing HDQ103-GFP with the indicated compounds (1 μM, 24 h) treated with HCQ (10 μM, 24 h). Scale bar, 10 μm. (k) Quantification of j (n=3 biologically independent experiments each counting 50 cells). P-values (from a two-sided unpaired t-test): *P < 0.0432. Data are presented as mean values ± SD where relevant. Source data are provided with this paper. […]

[3] = tested on: tauP301L inclusion bodies; experiment: ICC of TauP301L-GFP autophagic targeting in HeLa cells; assay type: cell-based; conditions: Fig. 5k, HCQ alone
Experimental: Fig. 5 Selective degradation of pathological aggregation-prone tau species by aggregate-binding AUTOTAC. a–c WB in SH-SY5Y-tauP301L cells treated with PBA-1105, PBA, or YTK-1105 at the indicated concentrations. d Densitometry of (a, b, and c) (n = 3 biologically independent experiments). e–g Same as (a–c) but with Anle138b-F105, Anle138b, or YTK-105. (h) Densitometry of (e, f, and g) (n = 3 biologically independent experiments). i WB in SH-SY5Y-tauP301L cells treated with PBA-1105 (0.1 μM) at the indicated time points. j ICC of HeLa cells expressing recombinant TauP301L-GFP and treated with the indicated compounds (1 μM, 24 h) and HCQ (10 μM, 24 h). Scale bar, 10 μm. k Quantification of (j) (n = 3 biologically independent experiments each counting 50 cells). l In vivo oligomerization assay in SH-SY5Y-tauP301L cells treated with okadaic acid (15 nM, 24 h) and the indicated compounds (0.1 μM, 24 h). m Triton X-100-fractionation assay in SH-SY5Y-tauP301L cells treated with a combination of HCQ (10 μM, 24 h), okadaic acid (15 nM, 24 h) or PBA-1105 (0.1 μM, 24 h). Data are presented as mean values ± SD where relevant. P-values (from a two-sided unpaired t test): **P < 0.00821. Source data are provided with this paper.
(§2) Cells were cultured on coverslips coated with poly-L-lysine (Sigma) to observe cellular localization of proteins. Using 4% paraformaldehyde in PBS (pH 7.4), the cells were fixed for 15 min at room temperature and washed three times for 5 min with PBS. After fixing, the cells were permeabilized with 0.5% Triton X-100 in PBS solution for 15 min and washed three times with PBS for 5 min. The cells were blocked containing 2% BSA in PBS solution for 1 h at room temperature. Subsequently, the cells were incubated with primary antibody diluted in 2% BSA/PBS solution overnight at 4 °C, followed by washing the cells three times for 10 min with PBS and incubated with Alexa Fluor-conjugated secondary antibody diluted in 2% BSA/PBS for 30 min at room temperature. Using a DAPI-containing mounting medium (Vector Laboratories), the coverslips were mounted on glass slides. Confocal images were taken by laser scanning confocal microscope 510 Meta (Zeiss) and analyzed by Zeiss LSM Image Browser (ver. 4.2.0.121). […] Quantification results are shown as mean ± S.D. or S.E.M. of three independent experiments

[4] = tested on: p62 and LC3 punctate structures; experiment: ICC of p62 and LC3 puncta formation and co-localization in HeLa cells; assay type: cell-based; conditions: 2.5 μM, 24 h
Experimental: as §2

[5] = tested on: p62-positive and WIPI2-positive punctate structures; experiment: ICC of WIPI2-p62 co-localization in HeLa cells; assay type: cell-based; conditions: HeLa expressing WIPI2-GFP, 2.5 μM, 6 h
Experimental: as §2
Supplementary Fig. 2. Characterization of p62-ZZ ligands (a, c, e) 3-D modeling of p62 […]
μM, 6 h). (m) Quantification of l for co-localization (n=3, 50 cells). Scale bar, 10 µm. (n) […]

[6] = tested on: autophagic turnover of p62 and LC3; experiment: Autophagic flux assay in HeLa cells with or without HCQ; assay type: cell-based; conditions: 2.5 μM, 24 h, with or without HCQ 10 µM 24 h
Experimental: Fig. 1 Nt-Arg-mimicking p62-ZZ ligands activate p62-dependent selective macroautophagy. a A model illustrating the mode of action of autophagy-targeting ligands. b Chemical structures of autophagy-targeting ligands. c In vitro pulldown assay in HEK293T cells of the 12-mer V-BiP peptide or autophagy-targeting ligands. d In vitro p62 oligomerization assay in HEK293T cells incubated with the p62-ZZ ligands in (b). e ICC of HeLa cells treated with p62-ZZ ligands in (b) (2.5 μM, 24 h). Scale bar, 10 μm. f, g Quantification of (e) for puncta formation and co-localization, respectively (n = 3 biologically independent experiments each counting 50 cells). h A schematic/formulae for autophagy flux index. i Autophagic flux assay in HeLa cells treated with YOK-1304 or YTK-105 (2.5 μM, 24 h) in the presence or absence of HCQ (10 µM, 24 h). Data are presented as mean values ± SD where relevant. P-values (from a two-sided unpaired t test): ***P < 0.000956 (for p62 punctate formation), ***P < 0.000539 (for LC3 punctate formation), ***P < 0.000925 (for p62-LC3 co-localization). Source data are provided with this paper. TEXT PRINTED IN THE PICTURE: (i) YOK 1304: Normalized p62 A.F. index: 2.8; Normalized LC3 II/I A.F. index: 4.2 | (i) YTK 105: Normalized p62 A.F. index: 4.6; Normalized LC3 II/I A.F. index: 11.2
as §1

[7] = WST-based cell viability assay in ACHN cells; conditions: human, ACHN cells; for viability at 0.01 µM / viability at 0.1 µM / viability at 1 µM / viability at 10 µM / viability at 50 µM / viability at 100 µM: ACHN
[8] = tested on: ACHN cells; experiment: WST-based cell viability assay in ACHN cells; conditions: ACHN, duplicates
[9] = tested on: ACHN cells; experiment: Wound healing assay in ACHN cells; assay type: cell-based; parameters: wound area / wound area, Average: unit not given here; conditions: ACHN, 5 μM; for wound area: N=1, N=2
Experimental: To analyze cell migration in two dimensions, U-87 MG or ACHN cells were plated to a monolayer. Cells were scratched with a sterile 10 μl pipette tip and the debris was removed using medium. Cells were treated with compounds and incubated for different time to monitor cell behavior. Photographs were obtained using a microscope at different time point.

[10] = duplicates, read-out: WST assay viability relative to con = 100
[11] = read-out: WST assay viability, AVG %

tauP301L, sequence (P10636 1-441 isoform P10636-8 P301L): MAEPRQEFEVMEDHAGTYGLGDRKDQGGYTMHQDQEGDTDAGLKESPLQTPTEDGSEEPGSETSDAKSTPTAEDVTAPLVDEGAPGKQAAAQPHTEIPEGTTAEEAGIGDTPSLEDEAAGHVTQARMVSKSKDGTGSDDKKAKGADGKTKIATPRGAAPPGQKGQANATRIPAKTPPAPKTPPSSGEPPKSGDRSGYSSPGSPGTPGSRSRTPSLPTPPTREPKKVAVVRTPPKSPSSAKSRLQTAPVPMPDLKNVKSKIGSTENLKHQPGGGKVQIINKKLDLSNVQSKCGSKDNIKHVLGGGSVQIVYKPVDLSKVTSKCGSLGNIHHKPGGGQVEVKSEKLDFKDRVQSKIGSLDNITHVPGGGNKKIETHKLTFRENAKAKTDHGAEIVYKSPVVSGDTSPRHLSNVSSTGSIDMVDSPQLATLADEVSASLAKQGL

SMILES: Brc1cccc(-c2cc(-c3ccc4c(c3)OCO4)[nH]n2)c1 [Anle138b, reference compound]
- Tau normalized to GAPDH and control, AVG % ([1]; 1 nM): 90.8031%
- remaining activity at 0.001 µM ([1]; 1 nM, read-out: (Tau normalized to GAPDH) normalized to control, percentage (individual replicates N=1, N=2, N=3)): 89.3%
- Tau normalized to GAPDH and control, AVG % ([1]; 10 nM): 101.352%
- Tau normalized to GAPDH and control, AVG % ([1]; 100 nM): 84.5794%
- Tau normalized to GAPDH and control, AVG % ([1]; 1 uM): 69.922%
- Tau normalized to GAPDH and control, AVG % ([1]; 10uM): 83.6402%
- HttQ103-GFP / LC3 colocalization, AVG of cells per 50 cells [2]: 21
- HttQ103-GFP / LC3 colocalization, percentage AVG [2]: 42

SMILES: CCN(CCO)CCCC(C)Nc1ccnc2cc(Cl)ccc12 (stereo not drawn) [HCQ]
- TauP301L-GFP / LC3 colocalization, AVG of cells per 50 cells [3]: 11.3333
- TauP301L-GFP / LC3 colocalization, percentage AVG [3]: 22.6667 percentage
- TauP301L-GFP / LC3 colocalization, cells counted per 50 cells (individual replicates) ([3]; count out of 50 cells): 15 and 7 and 12
- HttQ103-GFP / LC3 colocalization, AVG of cells per 50 cells [2]: 14.6667
- HttQ103-GFP / LC3 colocalization, percentage AVG [2]: 29.3333
- HttQ103-GFP / LC3 colocalization, cells counted per 50 cells ([2]; single experiments): 13 and 17 and 14

SMILES: CC(C)NCC(O)COc1ccc(OCc2ccccc2)c(OCCCc2ccccc2)c1 (stereo not drawn) [YOK-1304]
- LC3 puncta formation, AVG of cells of 50 [4]: 38.6667
- LC3 puncta formation, percentage AVG [4]: 77.3333%
- p62-LC3 colocalization, AVG of cells of 50 [4]: 37
- p62-LC3 colocalization, percentage AVG [4]: 74%
- p62 puncta formation, AVG of cells of 50 [4]: 40.3333
- p62 puncta formation, percentage AVG [4]: 80.6667%
- LC3 puncta formation, cells of 50 cells counted ([4]; single experiments): 29 and 49 and 38
- p62-LC3 colocalization, cells of 50 cells counted ([4]; single experiments): 36 and 39
- p62 puncta formation, cells of 50 cells counted ([4]; single experiments): 46 and 36 and 39
- WIPI2-GFP-p62 colocalization, AVG of cells of 50 [5]: 30.6667
- WIPI2-GFP-p62 colocalization, percentage AVG [5]: 61.3333%
- WIPI2-GFP-p62 colocalization, cells of 50 cells counted ([5]; single experiments): 28 and 23 and 41
- Normalized LC3 II/I A.F. index [6]: 4.2
- Normalized p62 A.F. index [6]: 2.8
- viability at 0.01 µM [7, 10]: 96.5%
- viability at 0.01 µM [7, 11]: 96%
- viability at 0.1 µM [7, 10]: 110%
- viability at 0.1 µM [7, 11]: 106%
- viability at 1 µM [7, 10]: 104%
- viability at 1 µM [7, 11]: 102%
- viability at 10 µM [7, 10]: 101%
- viability at 10 µM [7, 11]: 102%
- viability at 50 µM [7, 10]: 118%
- viability at 50 µM [7, 11]: 113%
- viability at 100 µM [7, 10]: 64.9%
- viability at 100 µM [7, 11]: 67.1%
- IC50 ([7]; WST-based viability assay, read-out: cytotoxicity IC50): > 20 µM
- WST assay raw reading ([8]; 0.01uM): 0.964 and 0.955
- WST assay viability relative to con = 100 ([8]; 0.01uM): 95.4624
- WST assay raw reading ([8]; 0.1uM): 1.085 and 1.014
- WST assay raw reading ([8]; 1uM): 1.025 and 0.998
- WST assay viability relative to con = 100 ([8]; 1uM): 100.423
- WST assay raw reading ([8]; 10uM): 1.004 and 1.024
- WST assay viability relative to con = 100 ([8]; 10uM): 103.422
- WST assay raw reading ([8]; 50uM): 1.153 and 1.063
- WST assay viability relative to con = 100 ([8]; 50uM): 107.922
- WST assay raw reading ([8]; 100uM): 0.69 and 0.729
- WST assay viability relative to con = 100 ([8]; 100uM): 69.3905
- wound area, Average ([9]; 0h): 2209762
- wound area, Average % ([9]; 0h): 0%
- wound area ([9]; 0h): 2287288 and 2132236
- wound area, Average ([9]; 4h): 1966032
- wound area, Average % ([9]; 4h): 0%
- wound area ([9]; 4h): 2073039 and 1859025
- wound area, Average ([9]; 12h): 1228896
- wound area, Average % ([9]; 12h): 0%
- wound area ([9]; 12h): 1307559 and 1150234
- wound area, Average ([9]; 24h): 122450
- wound area, Average % ([9]; 24h): 0%

Reference: publication PMC8850458, “The AUTOTAC chemical biology platform for targeted protein degradation via the autophagy-lysosome system” (Nature Communications, 2022)
